Measurements: PMC3937211, “Serine Carboxypeptidase SCPEP1 and Cathepsin A Play Complementary Roles in Regulation of Vasoconstriction via Inactivation of Endothelin-1” (PLoS Genetics, 2014)
No end group written: not given here.

Experiments:
mesenteric arteries = experiment: Vessel reactivity ex vivo; parameters: species or system mouse; conditions: isolated mesenteric arteries; WT, Scpep1^−/−, CathA^S190A, DD; drugs added extraluminally
Experimental: Vessel reactivity ex vivo was analyzed as described, [40]. Briefly, male mice were sacrificed at five months and their mesenteric arteries were isolated and mounted onto glass capillaries in an artereograph chamber filled with cold oxygenated Krebs solution (118.6 mM NaCl, 4.7 mM KCl, 1.2 mM KH2PO4, 1.2 mM MgSO4, 25.1 mM NaHCO3, 26 µM EDTA, 0.18% glucose, 2.5 mM CaCl2). The arteries were constantly perfused intraluminally with Krebs solution at 30 mmHg. After 45 minutes of equilibration vascular reactivity was measured in response to Norepinephrine (Sigma A-0937, 10^−9–10^−5 M), Acetylcholine (Sigma A-6625, 10^−9–10^−4 M), Sodium Nitroprusside (Calbiochem 56538, 10^−9–10^−4 M), Endothelin-1 (American Peptide Company 88-1-10, 10^−11–10^−8 M) and AI, (American Peptide Company 12-1-10, 10^−8–10^−4 M). Drugs were added extraluminally with a 30 min washout period in between each drug, during which the arteries were able to re-equilibrate to a baseline. To test vasodilatation arteries were pre-contracted with NE to 70% of their equilibration diameter. At least 3 concentration response curves were conducted for each vessel and at least 6 animals were studied for each genotype.

rats = conditions: induced by monocrotaline in rats; ref [33]; cited from earlier work
Source text: The anti-hypertensive effect of retinoic acid tre ...

[1] = test system: MLC-2 phosphorylation in AVSMC (ETR-A, ETR-B); experiment: Myosin light chain 2 phosphorylation by Western blot; type: cell-based, mouse; conditions: WT AVSMC, 30 min pre-treatment with 2 µM antagonist, then 5 min 100 nM ET-1, 3 independent experiments
Source text: To verify at the molecular level if AVSMC from CathA^S190A/Scpep1^−/− mice have increased reactivity to ET-1, we studied intracellular signalling events in these cells in response to ET-1. ET-1 interacts with G-protein-associated endothelin type A (ETR-A) and type B (ETR-B) receptors on the surface of AVSMC. Activation of the receptors induces phospholipase C and increases the intracellular Ca^2+ level leading to activation of myosin light chain kinase that phosphorylates myosin light chain (MLC) [21]–[24]. This causes contraction of myosin filaments and shrinkage of the cells. We therefore, compared the level of MLC phosphorylation in AVSMC before or after treatment with ET-1 for the 4 strains of mice. AVSMC cultured overnight in serum-free medium were treated with or without 100 nM ET-1, harvested and analyzed by Western blot using antibodies against MLC-2 phosphorylated at Thr^18 and Ser^19 residues or against total MLC protein.
Figure 5 Cultured AVSMC from mice with combined CathA/Scpep1 deficiency show increased reactivity to ET-1. […] Total protein extracts were analyzed by Western blotting using antibodies specific for phosphorylated (pThr^18/Ser^19-MLC) and total MLC-2 protein. […] Total protein extracts were analyzed by Western blotting using antibodies specific for phosphorylated and total MLC-2 protein. […]

[2] = product of ET-1 cleavage by CathA in vitro; ref [13], [14]; cited from earlier work
Source text: The bioavailability and potency of AII and ET-1 can be regulated through many factors such as alteration of receptor density and affinity, up- and down-regulation of peptide synthesis or release, enzymatic activation (ACE and ACE2 for AII, ECE and MMP-2 for ET-1 [8]), or degradation (neutral endopeptidase NEP for ET-1 [9]–[11]). Previously we have shown that circulating ET-1 is inactivated by lysosomal carboxypeptidase, cathepsin A (CathA) widely distributed in mammalian tissues (reviewed in [12]). The majority of CathA in the cell is found in the lysosome but significant pool of the e ...

Compound | differences in vessel reactivity between the four groups of mice (mesenteric arteries) | other results
CC(=O)OCC[N+](C)(C)C [ACh, acetylcholine] | no differences | 
NC[C@H](O)c1ccc(O)c(O)c1 [NE, norepinephrine] | no differences | 
CC1=C(/C=C/C(C)=C/C=C/C(C)=C/C(=O)O)C(C)(C)CCC1 [all-trans retinoic acid] |  | effect on pulmonary hypertension (rats): inhibit pulmonary hypertension
BQ788 |  | effect on ET-1-induced MLC-2 phosphorylation [1]: blocked
angiotensin I (DRVYIHPFHL; Angiotensin-1; UniProt P01019 25-34, looked up) [AI, precursor of vasoconstrictive peptide AII; American Peptide Company 12-1-10] | no differences | 
des-Trp21-endothelin-1 (CSCSSLMDKECVYFCHLDII; ends and bridges not checked; cysteine pairing not given here; UniProt P05305 53-72, looked up, fragment) |  | biological activity [2]: biologically inactive
